Source: PMC12257394, “Design, Synthesis, and Biological Evaluation of Ferrocenyl–Cyclo-(Gly‑L‑Pro) Hybrids Sensitizing Multidrug-Resistant Cancer Cells to Anticancer Agents” (ACS Medicinal Chemistry Letters, 2025)

Columns and labels:
Assay type in all cases: cell-based, human
[1] = test system: SW620V cells (vincristine-resistant); assay: Neutral red uptake viability assay, SW620V; details: 72 h; for survival rate: n = 3, ± SD; for IC50: n = 3, read-out: Cytotoxic activity IC50 (95% CI)
Method: (§1) In general, compounds 4a–e exerted little or no cytotoxic effect on either SW620 or multidrug-resistant sublines even at 10 μM, with the remarkable exception of SW620C (cisplatin-selected variant of SW620) cells, which turned out to be relatively susceptible toward ferrocenyl 4a–c. […] This trend may reflect steric or electronic contributions to cellular uptake or interaction with intracellular targets. […] However, since E/Z isomeric data are currently available only for compound 4c, this hypothesis requires validation. To quantify this effect, IC50 values were determined (Table ). […]
(§2) The normal lung fibroblast MRC-5 and colorectal adenocarcinoma SW620 cell lines used in this experiment were purchased from American Type Culture Collection (USA) via LGC […]
(§3) Standards. Multidrug-resistant variants of SW620 cells were developed in our laboratory as described previously.10, 11 All cells were cultured under standard conditions (37°C, 5% CO2, 100% humidity) in high-glucose DMEM supplemented with GlutaMaxTM, HEPES (ThermoFisher Scientific, USA), and 10% fetal bovine serum (EURx, Poland). Cells were routinely tested for potential Mycoplasma contamination using the MycoProbe Mycoplasma Detection kit (R&D System, USA).
(§4) In total, 104 cells in 100 µL of complete medium were plated per well of a 96-well plate and left overnight to allow cells to adhere to the surface. Then, the cells were exposed to a desired concentration of tested compound(s). Stock solutions were prepared in DMSO and used immediately. The final DMSO concentration was constant and nontoxic (0.1% v/v). After 70-h incubation, neutral red was added to the final concentration of 1 mM. After another 2 h, the medium was aspirated, and cells were washed twice with PBS. Dye was released using 100 µL of a solubilizer (1% acetic acid in 50% ethanol) on an orbital shaker (10 min). Absorbance was read at 540 nm using EnVision Multilabel Plate Reader (Perkin Elmer, USA). Results were expressed as % of control. The IC50 parameters were calculated using GraphPad Prism version 10 (GraphPad Software, Boston, Massachusetts USA).
(§5) The enhancement of reversal potency (ERP) value determination
(§6) For MDR reversal assays, cytotoxic agents were co-administered with compounds 4a–4e at equimolar concentrations in a range of 10 nM to 100 µM. IC₅₀ values were determined in ABCB1-overexpressing SW620 cell line variants. The enhancement of reversal potency (ERP) was calculated using the following formula: ERP = IC₅₀(drug)MDR / IC₅₀(drug + compound)MDR. All experiments were performed in triplicate (n = 3).

SW620Mito cells = assay: Synergy determination (Bliss model, SynergyFinder), SW620Mito; details: drug mitoxantrone + additive, SW602Mito; for synergy score: Bliss model
From the text: (§7) In an ideal setting, the effect of cell exposure to a combination of a chemotherapeutic and an MDR inhibitor should be synergistic. […] The highest synergy scores identified an optimal concentration range where the combination exerted its maximal effect. […] In cisplatin-resistant SW620C cells, the low or lack of synergy observed for most compounds may be due to the additive effects of cisplatin and 4 rather than a true synergistic interaction. […]
(§8) To evaluate the potential interactions between putative ABC inhibitors and anticancer drugs, we utilized the Bliss independence model, as implemented in the SynergyFinder web application.13, 14 Synergy scores and the most synergistic area scores were calculated based on the normalized dose–response matrices. A synergy score below −10 indicates likely […]
(§9) above 10 is indicative of likely synergistic interactions.
(§10) All experiments were performed at least three times, and the data were statistically analyzed

SW620E cells = assay: Synergy determination (Bliss model, SynergyFinder), SW620E; details: drug etoposide + additive; for synergy score: Bliss model
From the text: as §7, §8, §9, §10

MRC-5 fibroblasts = assay: Neutral red uptake viability assay, MRC-5; details: for survival rate: MRC-5, 10 μM, 72 h exposure, n = 3, ± SD; for Surviwal rate of MRC-5 at 10 microM: MRC-5, 10 microM (xlsx)
Method: as §2, §3
as §4, with “Massachusetts USA). […]” for “Massachusetts USA).”
(§11) All experiments were performed in triplicate (n = 3).

[2] = test system: ABCB1-overexpressing SW620D cells; assay: MDR reversal assay (ERP), SW620D; details: for ERP value, doxorubicin + compound: SW620D (xlsx); for ERP = IC50(drug)MDR/IC50(drug+4)MDR: doxorubicin, SW620D
From the text: (§12) We investigated the potency of 4a–e to inhibit ABC transporters (ABCB1, ABCC1, and ABCG2) by determining their enhancement of reversal potency (ERP) values. ERP represents fold changes in the IC50 values of anticancer drugs in multidrug-resistant cancer sublines (ABCB1-overexpressing SW620D, SW620E, and SW620V; ABCC1-overexpressing SW620M; ABCG2-overexpressing SW620C and SW620Mito) exposed to a combination of the investigated compounds and anticancer agents at equimolar concentrations, compared with values obtained with drugs alone (Tables S2 and S3 and Figure ).
as §3, §4, §5, §6

[3] = test system: SW620Mito cells (mitoxantrone-resistant); assay: Neutral red uptake viability assay, SW620Mito; details: 72 h; for survival rate: n = 3, ± SD; for IC50: n = 3, read-out: Cytotoxic activity IC50 (95% CI)
Method: as §1, §2, §3
as §4, with “Massachusetts USA). […]” for “Massachusetts USA).”
as §11

[4] = test system: ABCC1-overexpressing SW620M cells; assay: MDR reversal assay (ERP), SW620M; details: for ERP value, methotrexate + compound: SW620M (xlsx); for ERP = IC50(drug)MDR/IC50(drug+4)MDR: methotrexate, SW620M
From the text: as §12, §3, §4, §5, §6

SW620D cells = assay: Synergy determination (Bliss model, SynergyFinder), SW620D; details: drug doxorubicin + additive; for synergy score: Bliss model
From the text: as §7, §8, §9, §10

SW620C cells = assay: Synergy determination (Bliss model, SynergyFinder), SW620C; details: drug cisplatin + additive; for synergy score: Bliss model
From the text: as §7, §8, §9, §10

[5] = test system: SW620C cells (cisplatin-resistant); assay: Neutral red uptake viability assay, SW620C; details: for survival rate / IC50 / Cytotoxic activity IC50 (95% CI): SW620C, 72 h; for survival rate: n = 3, ± SD; for IC50 / Cytotoxic activity IC50 (95% CI): n = 3; for IC50: read-out: Cytotoxic activity IC50 (95% CI)
Method: as §2
as §3, with “described” for “Standards. Multidrug-resistant variants of SW620 cells were developed in our laboratory as described”
as §4, with “Massachusetts USA). […]” for “Massachusetts USA).”
IC₅₀ values were determined in […]
as §11

Row | SMILES | survival rate ([1]; 1 μM) | survival rate ([1]; 10 μM) | IC50 [1] | most synergistic area score (SW620Mito cells) | synergy score (SW620Mito cells) | most synergistic area score (SW620E cells) | synergy score (SW620E cells) | survival rate (MRC-5 fibroblasts) | ERP value, doxorubicin + compound [2] | ERP = IC50(drug)MDR/IC50(drug+4)MDR [2] | survival rate ([3]; 1 μM) | survival rate ([3]; 10 μM) | ERP value, methotrexate + compound [4] | ERP = IC50(drug)MDR/IC50(drug+4)MDR [4] | most synergistic area score (SW620D cells) | synergy score (SW620D cells) | most synergistic area score (SW620C cells) | synergy score (SW620C cells) | survival rate ([5]; 1 μM) | survival rate ([5]; 10 μM) | also measured
1 | O=C1N/C(=C/c2cccc(-[c-]3cccc3)c2)C(=O)N2CCC[C@@H]12.[Fe+2].c1cc[cH-]c1 [(S,E)-4c] | 96 ± 1.8% | 94 ± 0.8% | > 100 µM | 0.67 | –4.74 | 1.22 | –4.06 | 110 ± 10% | 0.77 | 0.77 | 94 ± 3.5% | 94 ± 1.1% | 1.16 | 1.16 | 1.68 | –3.01 | 8.86 | 0.39 | 84 ± 0.7% | 87 ± 1.1% | IC50 [3]: > 100 µM; fold higher IC50 value than (S,Z)-4c ([5]; SW620C cells): 13 fold; IC50 [5]: 62.4 µM
2 | O=C1N/C(=C\c2ccc(-[c-]3cccc3)cc2)C(=O)N2CCC[C@@H]12.[Fe+2].c1cc[cH-]c1 [(S,Z)-4d] | 94 ± 2.9% | 95 ± 3.2% | > 100 µM | 27.66 | 17.05 | 26.95 | 16.02 | 101 ± 7% | 2.86 | 2.86 | 98 ± 0.9% | 93 ± 1.1% | 0.84 | 0.84 | 17.81 | 7.37 | 13.42 | – | 96 ± 3.6% | – | IC50 [3]: > 100 µM; IC50 [5]: > 100 µM
3 | O=C1N/C(=C\c2ccccc2-[c-]2cccc2)C(=O)N2CCC[C@@H]12.[Fe+2].c1cc[cH-]c1 [(S,Z)-4b] | 92 ± 0.9% | 95 ± 2.4% | 48.8 µM | 19.63 | 11.11 | 14.42 | 3.32 | 92 ± 8.7% | 2.34 | 2.34 | 85 ± 1.0% | 85 ± 1.9% | 1.84 | 1.84 | 11.62 | 3.96 | 0.00 | –2.78 | 83 ± 4.2% | 57 ± 1.1% | IC50 [3]: 44.9 µM; Cytotoxic activity IC50 (95% CI) [5]: low-micromolar; IC50 [5]: 12 µM
4 | O=C1N/C(=C\c2ccccc2)C(=O)N2CCC[C@@H]12 [(S,Z)-4e] | 98 ± 0.9% | 99 ± 1.4% | – | 0.00 | –3.17 | 2.22 | –2.56 | 102 ± 6% | 0.70 | 0.70 | 92 ± 1.3% | 94 ± 1.8% | 1.28 | 1.28 | 0.00 | –8.70 | 6.66 | –3.14 | 95 ± 2.1% | 95 ± 1.0% | Surviwal rate of MRC-5 at 10 microM (MRC-5 fibroblasts): 102_6
5 | O=C1N/C(=C\[c-]2cccc2)C(=O)N2CCC[C@@H]12.[Fe+2].c1cc[cH-]c1 [(S,Z)-4a] | 94 ± 0.7% | 94 ± 2.5% | > 100 µM | 16.82 | 7.86 | 28.26 | 12.44 | 106 ± 13% | 2.90 | 2.90 | 98 ± 2.0% | 90 ± 3.1% | 1.17 | 1.17 | 20.51 | 6.30 | 4.33 | –2.62 | 78 ± 1.8% | 54 ± 3.1% | IC50 [3]: > 100 µM; Cytotoxic activity IC50 (95% CI) [5]: low-micromolar; IC50 [5]: 15.1 µM
6 | O=C1N/C(=C/c2ccccc2)C(=O)N2CCC[C@@H]12 [(S,E)-4e] | 95 ± 2.9% | 95 ± 3.3% | – | 4.35 | –0.12 | 0.19 | –3.93 | 117 ± 11% | 0.77 | 0.77 | 94 ± 0.7% | 96 ± 0.8% | 1.08 | 1.08 | 0.00 | –6.63 | 3.89 | –2.78 | 96 ± 0.8% | 95 ± 2.5% | Surviwal rate of MRC-5 at 10 microM (MRC-5 fibroblasts): 117_11
